{"source": "patent US20210095260A1", "about": "“BI- OR MULTI-DIFFERENTIATED ORGANOID” (IMBA - INSTITUT FÜR MOLEKULARE BIOTECHNOLOGIE GMBH, priority 2017, published 2021)", "origin": "cited, not measured here", "system": "hPSCs", "conditions": "inhibition of SHH activity; cited from earlier work", "data": [{"smiles": "CC1=C2C[C@H]3[C@@H](CC=C4C[C@@H](O)CC[C@@]43C)[C@@H]2CC[C@]12O[C@@H]1C[C@H](C)CN[C@H]1[C@H]2C", "note": "[CycA, cyclopamine A]", "values": [{"measurement": "dorsal forebrain identity", "value": "can enhance dorsal forebrain identity"}]}]}
